In the assay the test system is CB CD34+CD38− HSC. The experiment in a line: In vitro proliferation of sorted cord blood CD34+CD38− HSC with 6 growth factor stimulation, cells counted after 6 days. Format: cell-based, human. Conditions: 300 per well, Cellgro supplemented with 6 factors, after 6 d, versus 6 factors alone. Here is the method: Human cord blood cells were sorted by FACS and plated into cell culture wells (300 cells/well) in the presence of Cellgro supplemented with 6 growth factors G-CSF, […], FL-T3 ligand, (FLT3-L), MGDF (all 100 ng/ml), IL-6 and IL-3 (both 10 ng/ml). In addition, α9β1 antibody (Chemicon), thrombin-cleaved bovine Opn (R & D Systems, Minneapolis, Minn., USA), or Opn inhibiting peptide [SVVYGLR-NH2] (Auspep) (SEQ ID NO:1) were added. All cells were cultured at 37° C. in 5% O2, 10% CO2 and 85% N2. Cells were grown for 6 days prior to counting.
Thrombin-cleaved Opn was prepared by incubating 24 μg bovine Opn in 20 mM Tris-HCl (pH 7.6), 80 mM NaCl, 2 mM CaCl2 and 0.1 units of thrombin (CSL, Parkville, Australia), for 10 min at 37° C.

Where no end group is shown, it is not given here.

For SVVYGLR-NH2 [osteopontin peptide], the cell proliferation entry is given as “significant inhibition of cell proliferation”.

Source of the values: patent publication US8071367B2, “Selecting, culturing and creating lineage committed hematopoietic stem cells” (Commonwealth Scientific and Industrial Research Organisation, priority 2005, dated 2011).
